The record followed here is patent US5344843A, “Cat-1 inhibitors, pharmaceutical compositions and methods of use” (Hoffman-La Roche Inc., priority 1992, dated 1994).

This test has as its target T1, CAT-1 (carnitine acyltransferase 1) (Rattus norvegicus, UniProt Q63704).
T1 construct: This preparation is used as the isolated mitochondrial preparation; from tissue; host or cells: rat heart (atria removed), isolated mitochondria
T1 sequence (Q63704 1-772): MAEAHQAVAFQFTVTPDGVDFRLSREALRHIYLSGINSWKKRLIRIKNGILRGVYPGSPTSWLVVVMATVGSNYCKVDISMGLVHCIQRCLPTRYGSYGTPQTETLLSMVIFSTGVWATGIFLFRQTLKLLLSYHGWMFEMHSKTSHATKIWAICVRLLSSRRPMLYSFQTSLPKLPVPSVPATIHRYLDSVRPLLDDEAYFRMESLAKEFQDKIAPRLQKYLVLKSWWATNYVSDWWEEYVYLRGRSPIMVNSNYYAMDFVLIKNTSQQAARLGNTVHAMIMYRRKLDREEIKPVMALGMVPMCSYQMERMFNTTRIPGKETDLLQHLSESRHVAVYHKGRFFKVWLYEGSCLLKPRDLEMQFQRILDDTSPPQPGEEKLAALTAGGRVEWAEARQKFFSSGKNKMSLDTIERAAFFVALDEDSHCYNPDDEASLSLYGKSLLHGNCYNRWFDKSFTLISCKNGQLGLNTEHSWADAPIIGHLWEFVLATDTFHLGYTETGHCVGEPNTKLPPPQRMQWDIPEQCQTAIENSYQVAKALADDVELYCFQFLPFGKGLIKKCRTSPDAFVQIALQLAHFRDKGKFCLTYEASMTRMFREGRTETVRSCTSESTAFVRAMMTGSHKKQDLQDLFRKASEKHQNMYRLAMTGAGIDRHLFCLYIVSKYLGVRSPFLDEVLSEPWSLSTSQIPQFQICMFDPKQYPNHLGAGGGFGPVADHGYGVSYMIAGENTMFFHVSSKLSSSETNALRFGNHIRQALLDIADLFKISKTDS
Nature of the test: Primary Screen--Inhibition of CAT-1 in isolated mitochondria. The format is biochemical. Also on record: inhibition: dose or concentration left out as unconfirmed.

Setting [1] is: rat heart mitochondria, reduction of palmitoyl carnitine formation by 50%, read-out: Primary Screen IC50.

Where a name gives a salt, the structure may show the parent alone. Read-outs that look alike come from different tables or passages of the source.

Protocol: Primary Screen--Inhibitors of CAT-1 in 1Mitochondria
(a). Preparation of Mitochondria
The heart is rapidly removed from an anesthetized rat (sodium pentabarbitol) and placed in ice-cold homogenization buffer (sucrose, 250 mM; Tris, 10 mM; EDTA, 1 mM; BSA, 0.01%; pH=7.4). The atria and extraneous tissue are removed and the remainder is chopped with scissors. The pieces are rinsed in homogenization buffer before being homogenized in 10 mL of the same buffer for 5-7 seconds. The homogenate is then diluted with homogenization buffer (40 total volume) and centrifuged at 200 g for 20 minutes. The supernatant is withdrawn and centrifuged at 7000 g for 20 minutes and the resulting pellet is isolated, resuspended in 40 mL of homogenization buffer and centrifuged once more at 7000 g for 20 minutes. The isolated pellet is resuspended in 10 mL of homogenization buffer and stored at 4° C. until use. This preparation is used as the isolated mitochondrial preparation.
(b). Inhibition of CAT-1 assay
Isolated mitochondria (20 μL) are incubated with 60 μL of Tris/sucrose buffer (sucrose, 500 mM; Tris, 20 mM; KCl, 100 mM; EDTA, 2 mM; pH=7.0 plus 83 μM palmitoyl CoA, and BSA, 0.8 mg/mL and 10^-4 to 10^-10 M of the drug to be tested. After 10 minutes at 30° C., the reaction is started by addition of 10 μL of ^3 H-carnitine (final concentration=250 μM). After 5 minutes, the reaction is terminated by the addition of ice cold 70% perchloric acid (PCA). The precipitated solids so formed, containing the insoluble product of the enzyme palmitoyl carnitine, are captured on filter paper. The filter paper is washed with 7% PCA, then dried and placed in scintillation vials with 10 mL of scintillant (Aquasol, New England Nuclear) and counted for radioactivity. The rate of the reaction is assessed by the difference in radioactivity between zero time and five minutes in the absence of test compound. The ability of test compounds at selected concentrations to inhibit CAT-1 is determined by their ability to reduce the formation of the radioactive product. The IC50 of the test compound is the concentration of test compound that reduces the formation of radioactive product by 50%.

A word on the IC50: it is the concentration that gives 50% inhibition. With `O=C(O)C(=O)c1ccc(OCCOc2ccc(Oc3ccccc3)cc2)cc1` [Example 59, alpha-oxo-4-[[2-(4-phenoxyphenoxy)ethyl]oxy]benzeneacetic acid], the IC50 under setting [1] was 10 µM. Same read-out and setting: with `Cc1cc(C)c(C(=O)COc2ccc(C(=O)C(=O)O)cc2)c(C)c1` [Example 292, 4-[2-oxo-2-(2,4,6-trimethylphenyl]ethoxy]-alpha-oxobenzeneacetic acid] the figure was 4.5 µM. Usually inhibition stands for the relative decrease from the control value, in per cent. `O=C(O)C(=O)c1cc(F)c(OCCOc2ccc3ccccc3c2)c(F)c1` [Example 203, 3,5-difluoro-4-[2-(2-naphthalenyloxy)ethoxy]-alpha-oxobenzeneacetic acid] yielded an inhibition of 37%. With `O=C(O)C(=O)c1ccc(OCCCCc2ccncc2)cc1` [Example 125, alpha-oxo-4-[4-(4-pyridinyl)butoxy]benzeneacetic acid], under setting [1], the IC50 was determined as 2 µM. On the same count and under the same terms, with `CN(C)/N=C(\C(=O)O)c1ccc(OCCOc2ccc3ccccc3c2)cc1` [Example 321, (Z)-alpha-(dimethylhydrazono)-4-[2-(2-naphthalenyloxy)ethoxy]benzeneaceticacid] the figure was 6.5 µM; with `O=C(O)C(=O)c1ccc(OCCc2ccccc2)cc1` [Example 21, 4-[(2-phenylethyl)oxy]-alpha-oxobenzeneacetic acid], 12 µM. Take `CCO/N=C(\C(=O)O)c1ccc(OCCOc2ccc3ccccc3c2)s1` [Example 310, (E)-alpha-(ethoxyimino)-5-[2-(2-naphthalenyloxy)ethoxy]-2-thiopheneacetic acid]: the IC50 under setting [1] worked out at 0.24 µM.

As for `CCCc1c(OCCCOc2ccc(C(=O)C(=O)O)cc2)ccc(C(=O)O)c1O` [Example 269, 4-[3-[4-carboxy-3-hydroxy-2-propylphenoxy)propoxy]-alpha-oxobenzeneacetic acid], the IC50 under setting [1] is 1.8 µM. The same measure, in the same setting: for `O=C(O)C(=O)c1ccc(CCCNC(=O)c2ccc3ccccc3c2)cc1` [Example 147, 4-[3-[[(2-naphthalenyl)carbonyl]amino]propyl]-alpha-oxobenzeneacetic acid] the value was 6.2 µM; for `O=C(O)C(=O)c1ccc(OCCCCSc2ccc3ccccc3c2)cc1` [Example 92, 4-[[4-(2-naphthalenylthio)butyl]oxy]-alpha-oxobenzeneacetic acid], 3.5 µM; for `O=C(O)C(=O)c1ccc(OCCOc2ccc(-c3ccccc3)cc2)cc1` [Example 57, 4-[[2-[4-(1,1'-biphenyl)oxy]ethyl]oxy]-alpha-oxobenzeneacetic acid], 5 µM. The same measure, in the same setting: for `O=C(O)C(=O)c1ccc(OCC(=O)c2ccccc2-c2ccccc2)cc1` [Example 288, 4-[2-[[1,1'-biphenyl]-2-yl]-2-oxoethoxy]-alpha-oxobenzeneacetic acid] the value was 1.4 µM; for `O=C(O)C(=O)c1ccc(OCCOc2ccc3ccncc3c2)cc1` [Example 129, 4-[[2-(7-isoquinolyloxy)ethyl]oxy]-alpha-oxobenzeneacetic acid (5:2) molar hydrate], 0.44 µM; for `O=C(O)C(=O)c1ccc(OCc2ccccc2)cc1` [Example 19, 4-[(phenylmethyl)oxy]-alpha-oxobenzeneacetic acid], 90 µM. The same measure, in the same setting: with `O=C(O)C(=O)c1ccc(OCCCCCCOc2ccccc2)cc1` [Example 75, alpha-oxo-4-[[(6-phenoxy)hexyl]oxy]benzeneacetic acid] the figure was 10 µM.

As for `NS(=O)(=O)c1ccc(OCCOc2ccc(C(=O)C(=O)O)cc2)cc1` [Example 53, 4-[[2-[4-(aminosulfonyl)phenoxy]ethyl]oxy]-alpha-oxobenzeneacetic acid], under setting [1], the IC50 is 4 µM. Still for that read-out and setting: with `O=C(O)C(=O)c1ccc(OCCCCCCc2cccc(OCc3ccccc3)c2OCc2ccccc2)cc1` [Example 259, 4-[6-[2,3-bis-(phenylmethoxy)phenyl]hexyloxy]-alpha-oxobenzeneacetic acid] the figure was 1.2 µM; with `O=C(O)C(=O)c1ccc(OCCOc2ccccc2F)cc1` [Example 39, 4-[[2-(2-fluorophenoxy)ethyl]oxy]-alpha-oxobenzeneacetic acid], 0.6 µM. For the compound `O=C(COc1ccc2ccccc2c1)Nc1ccc(C(=O)C(=O)O)cc1` [Example 153, 4-[[2-(2-naphthalenyloxy)acetyl]amino]-alpha-oxobenzeneacetic acid], under setting [1], the IC50 came out at 0.93 µM. Still for that read-out and setting: for `O=C(O)C(=O)c1ccc([S+]([O-])CCOc2ccc3ccccc3c2)cc1` (racemic) [Example 151, rac.-4-[[2-(2-naphthalenyloxy)ethyl]sulfinyl]-alpha-oxobenzeneacetic acid] the value was 5.5 µM; for `O=C(O)C(=O)c1ccc(OCC(=O)N2CCOCC2)cc1` [Example 255, 4-[2-(4-morpholinyl)-2-oxoethoxy]-alpha-oxobenzeneacetic acid], 12 µM. On the same count and under the same terms, with `O=C(O)/C(=N\OCc1ccccc1)c1ccc(OCCOc2ccc3ccccc3c2)s1` [Example 316, (E)-5-[2-(2-naphthalenyloxy)ethoxy]-alpha-[(phenylmethoxy)imino]-2-thiopheneacetic acid] the figure was 0.5 µM; with `COc1ccc(OCCOc2ccc(C(=O)C(=O)O)cc2)cc1OC` [Example 63, 4-[[2-(3,4-dimethoxyphenoxy)ethyl]oxy]-alpha-oxobenzeneacetic acid], 3 µM; with `O=C(O)C(=O)c1ccc(OCCCc2ccc(F)cc2)cc1` [Example 27, 4-[[3-(4-fluorophenyl)propyl]oxy]-alpha-oxobenzeneacetic acid], 3 µM.

With `O=C(O)C(=O)c1ccc(OCCCOc2ccccc2)cc1` [Example 69, alpha-oxo-4-[[(3-phenoxy)propyl]oxy]benzeneacetic acid], the IC50 under setting [1] came out at 2 µM.

Regarding `O=C(O)C(=O)c1ccc(OC/C=C/c2ccccc2)cc1` [Example 31, (E)-alpha-oxo-4-[(3-phenyl-2-propenyl)oxy]benzeneacetic acid], the IC50 under setting [1] stood at 0.1 µM. `CCC(C)(C)C(=O)Oc1cccc2ccc(OCCOc3ccc(C(=O)C(=O)OC)cc3)cc12` [Example 133, 4-[[2-[8-(2,2-dimethyl-1-oxobutoxy)-2-naphthalenyloxy]ethyl]oxy]-alpha-oxobenzeneacetic acid methyl ester]: the IC50 under setting [1] was found to be 35 µM.

Take `O=C(O)C(=O)c1ccc(OCc2ccc3ccccc3n2)cc1` [Example 159, 4-[(2-quinolinyl)methoxy]-alpha-oxo-benzeneacetic acid]: the IC50 under setting [1] came to 5.1 µM. On the same count and under the same terms, for `O=C(O)C(=O)c1ccc(NCCOc2ccc3ccccc3c2)cc1` [Example 168, 4-[[2-(2-naphthalenyloxy)ethyl]amino]-alpha-oxobenzeneaceticacid] the value was 0.7 µM; for `O=C(O)C(=O)c1ccc(OCC(=O)C2CCCCCCC2)cc1` [Example 290, 4-[2-(cyclooctyl)-2-oxoethoxy]-alpha-oxobenzeneacetic acid], 1 µM; for `C=CCO/N=C(\C(=O)O)c1ccc(OCCOc2ccc3ccccc3c2)s1` [Example 313, (E)-5-[2-(2-naphthalenyloxy)ethoxy]-alpha-[(2-propenyloxy)imino]-2-thiopheneacetic acid], 0.27 µM.

For the compound `CCO/N=C(/C(=O)O)c1ccc(OCCOc2ccc3ccccc3c2)s1` [Example 309, (Z)-alpha-(ethoxyimino)-5-[2-(2-naphthalenyloxy)ethoxy]-2-thiopheneacetic acid], the IC50 under setting [1] stood at 0.02 µM. The same measure, in the same setting: for `O=C(O)C(=O)c1ccc(OCCOCCOc2ccc(C(=O)C(=O)O)cc2)cc1` [Example 78, 4,4'-[oxybis(2,1-ethanedienyloxy)]bis(alpha-oxobenzeneacetic acid)] the value was 2 µM; for `COC(=O)C(=O)c1ccc(OCCOc2ccc3cc(OC(C)=O)ccc3c2)cc1` [Example 138, 4-[[2-[6-(Acetyloxy)-2-naphthalenyloxy]ethyl]oxy]-alpha-oxobenzeneacetic acid methyl ester], 8.9 µM.

Turning to `O=C(O)C(F)(F)c1ccc(OCCOc2ccccc2)cc1` [Example 11, alpha, alpha-difluoro-4-[[2-(phenoxy)ethyl]oxy]benzeneacetic acid], the IC50 under setting [1] was determined as 18 µM.

Turning to `O=C(O)C(=O)c1ccc(OCOc2ccccc2)cc1` [Example 67, alpha-oxo-4-[[(phenoxy)methyl]oxy]benzeneacetic acid], the IC50 under setting [1] worked out at 15 µM.

On to `O=C(O)C(=O)c1ccc(OCC(=O)N2CCN(c3ccccc3)CC2)cc1` [Example 249, 4-[2-oxo-2-(4-phenyl-1-piperazinyl)ethoxy]-alpha-oxobenzeneacetic acid], for which the IC50 under setting [1] worked out at 10 µM.

Take `O=C(O)C(=O)c1ccc(OCC(=O)N2CCN(CCc3ccccc3C(F)(F)F)CC2)cc1` [Example 253, alpha-oxo-4-[2-oxo-2-[4-[2-[2-(trifluoromethyl)phenyl]ethyl]-1-piperazinyl]ethoxy]benzeneacetic acid (1:1) hydrochloride]: the midpoint of inhibition, the IC50, lay at 0.5 µM. Consider `CCCc1c(OCCCOc2ccc(C(=O)C(=O)O)cc2)ccc(C(C)=O)c1OC` [Example 271, 4-[3-[4-acetyl-3-methoxy-2-propylphenoxy)propoxy]-alpha-oxobenzeneacetic acid], for which the IC50 under setting [1] was determined as 0.46 µM.
